Here are results for 15 molecules from patent publication US6818643B1, “Neurotrophic bicyclic diamides” (Bristol-Myers Squibb Company, priority 1999, dated 2004).

T1 sequence (P62942 whole entry, species assumed): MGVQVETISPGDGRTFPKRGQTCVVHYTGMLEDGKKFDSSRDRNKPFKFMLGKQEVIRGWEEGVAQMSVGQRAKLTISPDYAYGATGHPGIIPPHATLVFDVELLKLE

One assay addresses T1, FKBP12 (Homo sapiens, UniProt P62942). In words: FKBP12 Rotamase Inhibition Assay. The assay is classed as biochemical. The settings on record: Table 2; 1 μM compound. As for the experimental part: FKBP12 Rotamase Inhibition Assay
The rotamase activity of FKBP-12 was measured by an adaptation of the assay described by Kofron et al. (Biochemistry, 30, pp. 6127-6134 (1991)). The assay was carried out at 4° C. with 1 mg chymotrypsin/mL of assay with succinyl-Ala-Leu-Pro-Phe-p-nitroanilide as the substrate. Chymotrypsin rapidly hydrolyzes the peptide bond on the C-terminal side of the Phe of the trans form of the peptide and releases the chromogenic p-nitroaniline. The rate of the reaction is controlled by the rate of conversion of the cis form of the peptide to the trans-form, the reaction catalyzed by FKBP12. The apparent Ki values for inhibition of the rotamase activity were determined by measuring decreases in the first order rate constant of the reaction catalyzed by FKBP12 as a function of the concentrations of the compounds described herein. Ki is the concentration of the compound that causes 50 percent inhibition of rotamase activity which is indicative of neurite outgrowth activity.
The inhibition is the drop in the measured response relative to a control, in per cent. `COc1cc(C(=O)C(=O)N2C3CCC2C(=O)N(C(CCc2ccccc2)CCc2ccccc2)C3)cc(OC)c1OC` [Example 5, (1S,5R)-8-(3,4,5-Trimethoxyphenyl)oxalyl-3,8-diaza-3-[3-phenyl-1-(2-phenylethyl)propyl]bicyclo[3.2.1]octan-2-one] came in with an inhibition at 1 µM of 49%.

Still in this assay, the particulars now being: read-out: Ki measured by the prolyl isomerase assay.
What is called Ki is a measure of affinity in units of concentration, obtained from inhibition or displacement. For the molecule `CCC(C)(C)C(=O)C(=O)N1CCCC[C@H]1C(=O)OC(CCCc1ccccc1)CCNC(=S)Nc1ccc(-c2c3ccc(=O)cc-3oc3cc(O)ccc23)c(C(=O)O)c1` (stereo partly drawn) [fluorescent FKBP12 ligand, 1-Phenyl-6-(fluoresceinylaminothiocarbamoyl)-4-hexyl-(S)-N-(t-pentylglyoxyl)pipecolate, reference compound], the inhibitory constant (Ki) amounted to 32 nM.

Another assay has as its target T1, FKBP12. As to the kind of experiment: Fluorescence Polarization (FP) Assay of FKBP12 Binding. The settings on record: Table 1; 1 μM compound; 100 nM fluorescent ligand, 200 nM FKBP12; read-out: % FP inhibition at 1 μM. As for the experimental part: Fluorescence Polarization (FP) Assay of FKBP12 Binding
The buffer (25 mM HEPES, 100 mM sodium chloride, pH 7.5) with pre-mixed enzyme and fluorescent ligand is distributed into wells (190 μL/well). Inhibitors are added as 10 μL of a 10% dimethylsulfoxide solution in the same buffer. FP is measured with an excitation wavelength of 485 nm and emission wavelength of 520 nm.
For orientation: Fluorescence polarisation rises when a labelled molecule tumbles more slowly, as on binding a larger partner.
Turning to `COc1cc(C(F)(F)C(=O)N2C3CCC2C(=O)N(CCCCc2ccccc2)C3)cc(OC)c1OC` [Example 32, (1S,5R)-8-(3,4,5-Trimethoxyphenyl)difluoroacetyl-3,8-diaza-3-(4-phenylbutyl)bicyclo-[3.2.1]octan-2-one], the inhibition at 1 µM turned out to be 4%.
Still for that read-out and setting: under `CCC(C)(C)C(=O)C(=O)N1C2CCC1C(=O)N(CCCc1cc(OC)c(OC)c(OC)c1)C2` (stereo not drawn) [Example 39, 1-{3,8-Diaza-2-oxo-3-[3-(3,4,5-trimethoxyphenyl)propyl]bicyclo[3.2.1]oct-8-yl}-3,3-dimethylpentane-1,2-dione] stands 4%; under `COC(=O)C(=O)N1C2CCCC1C(=O)N(CCCc1cc(OC)c(OC)c(OC)c1)C2` (stereo not drawn) [Example 40, Methyl-2-{3,9-diaza-2-oxo-3-[3-(3,4,5-trimethoxyphenyl)propyl]bicyclo[3.3.1]non-9-yl}-2-oxoacetate], 6%.
Regarding `CCC(C)(C)C(=O)C(=O)N1C2CCCC1C(=O)N(CCCc1cc(OC)c(OC)c(OC)c1)C2` (stereo not drawn) [Example 41, 1-{3,9-Diaza-2-oxo-3-[3-(3,4,5-trimethoxyphenyl)propyl]bicyclo[3.3.1]non-9-yl}-3,3-dimethylpentane-1,2-dione], the inhibition at 1 µM stood at 4%.
With `COc1cc(C(=O)C(=O)N2C3CCC2C(=O)N(CCCO)C3)cc(OC)c1OC` [Example 42, (1S,5R)-8-(3,4,5-trimethoxyphenyl)oxalyl-3,8-diaza-3-(3-hydroxypropyl)bicyclo[3.2.1]octan-2-one], the inhibition at 1 µM is 19%.

The same assay, now with this note: Table 1; rotamase Ki derived from FP assay.
Take `COc1cc(CCCN2C[C@H]3CC[C@@H](C2=O)N3C(=O)C(F)(F)c2cc(OC)c(OC)c(OC)c2)cc(OC)c1OC` [Example 31, (1S,5R)-8-(3,4,5-Trimethoxyphenyl)difluoroacetyl-3,8-diaza-3-[3-(3,4,5-trimethoxyphenyl)propyl]bicyclo[3.2.1]octan-2-one]: the Ki was found to be 598 nM.
`COc1ccc(CCCN2CC3CCCC(C2=O)N3C(=O)C(F)(F)c2cc(OC)c(OC)c(OC)c2)cc1OC` (stereo not drawn) [Example 35, 9-(3,4,5-Trimethoxyphenyl)difluoroacetyl-3,9-diaza-3-[3-(3,4-dimethoxyphenyl)propyl]bicyclo[3.3.1]nonan-2-one] had a Ki of 360 nM.
Turning to `COc1ccc(CCCCN2CC3CCCC(C2=O)N3C(=O)C(F)(F)c2cc(OC)c(OC)c(OC)c2)cc1OC` (stereo not drawn) [Example 36, 9-(3,4,5-Trimethoxyphenyl)difluoroacetyl-3,9-diaza-3-[4-(3,4-dimethoxyphenyl)butyl]bicyclo[3.3.1]-nonan-2-one], the Ki turned out to be 160 nM.

Staying with this assay, now noted: Table 2; 1 μM compound; 100 nM fluorescent ligand, 200 nM FKBP12; read-out: % FP inhibition at 1 μM.
Consider `COc1cc(C(F)(F)C(=O)N2C3CCC2C(=O)N(C(CCc2ccccc2)CCc2ccccc2)C3)cc(OC)c1OC` [Example 30, (1S,5R)-8-(3,4,5-Trimethoxyphenyl)difluoroacetyl-3,8-diaza-3-[3-phenyl-1-(2-phenylethyl)propyl]bicyclo[3.2.1]octan-2-one], for which the inhibition at 1 µM was determined as 4%.
The same measure, in the same setting: the result for `COc1cc(C(F)(F)C(=O)N2C3CCC2C(=O)N(CC(CCCc2ccccc2)CCCc2ccccc2)C3)cc(OC)c1OC` [Example 33, (1S,5R)-8-(3,4,5-Trimethoxyphenyl)difluoroacetyl-3,8-diaza-3-[5-phenyl-2-(3-phenyl-propyl)pentyl]bicyclo[3.2.1]-octan-2-one] reads 7%; that for `COc1cc(CCCC(CCCc2ccccc2)CN2CC3CCC(C2=O)N3C(=O)C(F)(F)c2cc(OC)c(OC)c(OC)c2)cc(OC)c1OC` [Example 34, (1S,5R)-8-(3,4,5-Trimethoxyphenyl)difluoroacetyl-3,8-diaza-3-[2-(3-phenylpropyl)-5-(3,4,5-trimethoxyphenyl)pentyl]bicyclo[3.2.1]octan-2-one], 11%.
On to `COc1cc(C(F)(F)C(=O)N2C3CCCC2C(=O)N(CC(CCCc2ccccc2)CCCc2ccccc2)C3)cc(OC)c1OC` (stereo not drawn) [Example 37], for which the inhibition at 1 µM came out at 4%.
As to `COc1cc(CCCC(CCCc2ccccc2)CN2CC3CCCC(C2=O)N3C(=O)C(F)(F)c2cc(OC)c(OC)c(OC)c2)cc(OC)c1OC` (stereo not drawn) [Example 38, 9-(3,4,5-Trimethoxyphenyl)difluoroacetyl-3,9-diaza-3-[2-(3-phenylpropyl)-5-(3,4,5-trimethoxyphenyl)pentyl]bicyclo[3.3.1]-nonan-2-one], the inhibition at 1 µM was found to be 50%.

Still in this assay, the particulars now being: read-out: % FP inhibition at 1 μM.
In the case of `COc1cc(CCCN2C[C@H]3CC[C@@H](C2=O)N3C(=O)C(F)(F)c2cc(OC)c(OC)c(OC)c2)cc(OC)c1OC` [Example 31, (1S,5R)-8-(3,4,5-Trimethoxyphenyl)difluoroacetyl-3,8-diaza-3-[3-(3,4,5-trimethoxyphenyl)propyl]bicyclo[3.2.1]octan-2-one], the inhibition at 1 µM was 19%.
On the same count and under the same terms, the result for `COc1ccc(CCCN2CC3CCCC(C2=O)N3C(=O)C(F)(F)c2cc(OC)c(OC)c(OC)c2)cc1OC` (stereo not drawn) [Example 35, 9-(3,4,5-Trimethoxyphenyl)difluoroacetyl-3,9-diaza-3-[3-(3,4-dimethoxyphenyl)propyl]bicyclo[3.3.1]nonan-2-one] reads 47%; that for `COc1ccc(CCCCN2CC3CCCC(C2=O)N3C(=O)C(F)(F)c2cc(OC)c(OC)c(OC)c2)cc1OC` (stereo not drawn) [Example 36, 9-(3,4,5-Trimethoxyphenyl)difluoroacetyl-3,9-diaza-3-[4-(3,4-dimethoxyphenyl)butyl]bicyclo[3.3.1]-nonan-2-one], 61%.
